Measurements as given in paper PMC11369081, “Molecular mechanism of prolactin-releasing peptide recognition and signaling via its G protein-coupled receptor” (Cell Discovery, 2024).
Peptide text beside a SMILES is read from it.

What was measured:
Type in all cases: cell-based
PrRPR E213A = target: T1, PrRPR E213A (Homo sapiens, UniProt P49683, E213A); assay: BRET2 Gi dissociation, E213A; conditions: E213A (45.52), Gi-coupling, AD293 cells; mean ± S.E.M., n = 3; P <0.0001 vs WT; read-out: BRET2 pEC50 (converted)
T1 construct: expressed in transfected cells; host or cells: AD293 cells
Experimental: (§1) AD293 cells (Agilent) were propagated in Dulbecco’s Modified Eagle Medium (DMEM, Thermo Fisher Scientific), enriched with 10% fetal bovine serum (FBS, Thermo Fisher Scientific), and maintained at 37 °C in a 5% CO2 environment. Cells were then seeded in 6-well dishes at a density of 130,000–150,000 cells per mL and allowed to incubate overnight. On the next day, cells were transfected with plasmids at a 1:1:1:1 ratio for receptor:Gα-RLuc8:Gβ:Gγ-GFP2[52]. PEI MAX 40 K (BIOHUB) was utilized to form complex with the plasmids at a ratio of 3 µL PEI per µg of plasmids, in OptiMEM (Gibco-Thermo Fisher Scientific) at a concentration of 10 ng plasmids per µL OptiMEM. After 24 h of incubation, the culture was harvested by centrifugation with PBS. The cell suspension was then allocated into a white 384-well plate at a volume of 30 µL per well, followed by the addition of 10 µL of freshly prepared 50 µM coelenterazine 400a (Yeasen). Following a 15-min equilibration period, cells were treated with 10 µL of ligand for an additional 5 min. Plates were subsequently read in a BioTek Synergy H1 microplate reader (BioTek) equipped with 395 nm (RLuc8-coelenterazine 400a) and 510 nm (GFP2) emission filters. BRET2 ratios were calculated as the ratio of the GFP2 emission to RLuc8 emission. Data were normalized to the baseline response of the ligand. […]

PrRPR C113A = target: T2, PrRPR C113A (Homo sapiens, UniProt P49683, C113A); assay: BRET2 Gq dissociation, C113A; conditions: C113A (2.57), Gq-coupling, AD293 cells; mean ± S.E.M., n = 3; P 0.0007 vs WT; read-out: BRET2 pEC50 (converted)
T2 construct: expressed in transfected cells; host or cells: AD293 cells
Experimental: as §1, with “Following a 15-min equilibration period, cells were treated with 10 µL of ligand for an additional 5 min.” left out, “emission.” for “emission. Data were normalized to the baseline response of the ligand.”
(§2) Supplementary Fig. S4 | Effects of mutations in the ligand-binding pocket and G protein intereface of Gq coupled PrRPR by BRET2 assay. […] BRET2 assay signals were measured after stimulation with PrRP20. […]

PrRPR V208A = target: T3, PrRPR V208A (Homo sapiens, UniProt P49683, V208A); assay: BRET2 Gq dissociation, V208A; conditions: V208A (ECL2), Gq-coupling, AD293 cells; mean ± S.E.M., n = 3; P 0.0347 vs WT; read-out: BRET2 pEC50 (converted)
T3 construct: expressed in transfected cells; host or cells: AD293 cells
Experimental: as §1, with “Following a 15-min equilibration period, cells were treated with 10 µL of ligand for an additional 5 min.” left out, “emission.” for “emission. Data were normalized to the baseline response of the ligand.”
as §2

PrRPR L294A = target: T4, PrRPR L294A (Homo sapiens, UniProt P49683, L294A); assay: BRET2 Gi dissociation, L294A; conditions: L294A (6.51), Gi-coupling, AD293 cells; mean ± S.E.M., n = 3; P 0.2845 vs WT; read-out: BRET2 pEC50 (converted)
T4 construct: Flag; expressed in transfected cells; host or cells: AD293 cells
Experimental: as §1

PrRPR Y225A = target: T5, PrRPR Y225A (Homo sapiens, UniProt P49683, Y225A); assay: BRET2 Gi dissociation, Y225A; conditions: Y225A (5.38), Gi-coupling, AD293 cells; mean ± S.E.M., n = 3; P <0.0001 vs WT; read-out: BRET2 pEC50 (converted)
T5 construct: Flag; expressed in transfected cells; host or cells: AD293 cells
Experimental: as §1

PrRPR H295A = target: T6, PrRPR H295A (Homo sapiens, UniProt P49683, H295A); assay: BRET2 Gi dissociation, H295A; conditions: H295A (6.52), Gi-coupling, AD293 cells; mean ± S.E.M., n = 3; P 0.8032 vs WT; read-out: BRET2 pEC50 (converted)
T6 construct: Flag; expressed in transfected cells; host or cells: AD293 cells
Experimental: as §1

PrRPR Q317A = target: T7, PrRPR Q317A (Homo sapiens, UniProt P49683, Q317A); assay: BRET2 Gq dissociation, Q317A; conditions: Q317A (7.35), Gq-coupling, AD293 cells; mean ± S.E.M., n = 3; P <0.0001 vs WT; read-out: BRET2 pEC50 (converted)
T7 construct: Flag; expressed in transfected cells; host or cells: AD293 cells
Experimental: as §1, with “Following a 15-min equilibration period, cells were treated with 10 µL of ligand for an additional 5 min.” left out, “emission.” for “emission. Data were normalized to the baseline response of the ligand.”
as §2

PrRPR V145A = target: T8, PrRPR V145A (Homo sapiens, UniProt P49683, V145A); assay: BRET2 Gq dissociation, V145A; conditions: V145A (3.36), Gq-coupling, AD293 cells; mean ± S.E.M., n = 3; P <0.0001 vs WT; read-out: BRET2 pEC50 (converted)
T8 construct: expressed in transfected cells; host or cells: AD293 cells
Experimental: as §1, with “Following a 15-min equilibration period, cells were treated with 10 µL of ligand for an additional 5 min.” left out, “emission.” for “emission. Data were normalized to the baseline response of the ligand.”
as §2

T1 sequence (P49683 whole entry E213A): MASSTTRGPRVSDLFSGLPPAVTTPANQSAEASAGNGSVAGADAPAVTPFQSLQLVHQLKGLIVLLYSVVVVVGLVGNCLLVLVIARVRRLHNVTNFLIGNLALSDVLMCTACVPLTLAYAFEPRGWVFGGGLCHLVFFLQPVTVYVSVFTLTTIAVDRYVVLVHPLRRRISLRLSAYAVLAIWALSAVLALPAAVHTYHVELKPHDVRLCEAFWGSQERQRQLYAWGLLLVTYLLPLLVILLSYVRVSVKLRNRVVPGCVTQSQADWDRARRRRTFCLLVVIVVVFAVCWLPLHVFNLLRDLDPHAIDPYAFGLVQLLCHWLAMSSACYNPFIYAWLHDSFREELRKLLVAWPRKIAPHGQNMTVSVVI
T3 sequence (P49683 whole entry V208A): as the sequence (P49683 whole entry E213A) above, with V208A, A213E counted along it
T2 sequence (P49683 whole entry C113A): as the sequence (P49683 whole entry E213A) above, with C113A, A213E counted along it
T4 sequence (P49683 whole entry L294A): as the sequence (P49683 whole entry E213A) above, with A213E, L294A counted along it
T5 sequence (P49683 whole entry Y225A): as the sequence (P49683 whole entry E213A) above, with A213E, Y225A counted along it
T7 sequence (P49683 whole entry Q317A): as the sequence (P49683 whole entry E213A) above, with A213E, Q317A counted along it
T6 sequence (P49683 whole entry H295A): as the sequence (P49683 whole entry E213A) above, with A213E, H295A counted along it
T8 sequence (P49683 whole entry V145A): as the sequence (P49683 whole entry E213A) above, with V145A, A213E counted along it

EC50 (PrRPR E213A): 1380 nM
EC50 (PrRPR C113A): 3.39 nM
EC50 (PrRPR V208A): 2.45 nM
EC50 (PrRPR L294A): 3.72 nM
EC50 (PrRPR Y225A): 550 nM
EC50 (PrRPR H295A): 3.02 nM
EC50 (PrRPR Q317A): 309 nM
EC50 (PrRPR V145A): 4.79 nM
SMILES: CC[C@H](C)[C@H](NC(=O)CNC(=O)[C@H](CCCNC(=N)N)NC(=O)[C@H](CO)NC(=O)[C@H](C)NC(=O)[C@H](Cc1ccc(O)cc1)NC(=O)[C@H](Cc1c[nH]c2ccccc12)NC(=O)[C@H](C)NC(=O)[C@@H]1CCCN1C(=O)[C@H](CC(N)=O)NC(=O)[C@@H](NC(=O)[C@H](CC(=O)O)NC(=O)[C@@H]1CCCN1C(=O)[C@@H](N)[C@@H](C)O)[C@@H](C)CC)C(=O)N[C@@H](CCCNC(=N)N)C(=O)N1CCC[C@H]1C(=O)N[C@H](C(=O)NCC(=O)N[C@@H](CCCNC(=N)N)C(=O)N[C@@H](Cc1ccccc1)C(N)=O)C(C)C [PrRP20] (H-TPDINPAWYASRGIRPVGRF-NH2)
